Results published in ChEMBL document CHEMBL6078688, “Discovery of Novel MyD88 Inhibitor A5S to Alleviate Acute Lung Injury with Favorable Drug-like Properties” (J Med Chem, 2024).
pIC50, pKd: −log10 of the molar value. Calls of active or inactive are those of the source. The rule behind the calls is not given here.

What was measured:
[1] = system: THP-1; test: Anti-inflammatory activity in LPS-induced human THP-1 cells assessed as inhibition of IL-6 production at 10 uM by ELISA relative to control; assay type: functional
[2] = system: J774.A1; test: Cytotoxicity against mouse J774.A1 cells at 10 uM by MTT assay; assay type: toxicity, cell-based; conditions: j774.a1, 10 µM
[3] = AUC (0 to infinity) in Sprague-Dawley rat at 1 mg/kg,iv administration measured upto 24 hrs by LC-MS/MS analysis; assay type: ADME, organism-based; conditions: in vivo
[4] = Oral bioavailability in Sprague-Dawley rat at 50 mg/kg administration measured upto 24 hrs by LC-MS/MS analysis; assay type: ADME, organism-based; conditions: in vivo
[5] = Cmax in Sprague-Dawley rat at 50 mg/kg,po administration measured upto 24 hrs by LC-MS/MS analysis; assay type: ADME, organism-based; conditions: in vivo
[6] = AUC (0 to t) in Sprague-Dawley rat at 50 mg/kg,po administration measured upto 24 hrs by LC-MS/MS analysis; assay type: ADME, organism-based; conditions: in vivo
[7] = Tmax in Sprague-Dawley rat at 1 mg/kg,iv administration measured upto 24 hrs by LC-MS/MS analysis; assay type: ADME, organism-based; conditions: in vivo
[8] = Stability of compound in rat serum measured after 6 hrs; assay type: ADME, cell-free
[9] = Stability of compound in simulated gastric fluid measured upto 12 hrs; assay type: physicochemical; conditions: simulated gi fluid
[10] = Tmax in Sprague-Dawley rat at 50 mg/kg,po administration measured upto 24 hrs by LC-MS/MS analysis; assay type: ADME, organism-based; conditions: in vivo
[11] = Stability of compound in enzyme free simulated intestinal fluid measured upto 12 hrs; assay type: physicochemical; conditions: simulated gi fluid
[12] = Half life in Sprague-Dawley rat at 1 mg/kg,iv administration measured upto 24 hrs by LC-MS/MS analysis; assay type: ADME, organism-based; conditions: in vivo
[13] = Cmax in Sprague-Dawley rat at 1 mg/kg,iv administration measured upto 24 hrs by LC-MS/MS analysis; assay type: ADME, organism-based; conditions: in vivo
[14] = Stability of compound in simulated intestinal fluid measured upto 12 hrs; assay type: physicochemical; conditions: simulated gi fluid
[15] = AUC (0 to t) in Sprague-Dawley rat at 1 mg/kg,iv administration measured upto 24 hrs by LC-MS/MS analysis; assay type: ADME, organism-based; conditions: in vivo
[16] = Stability of compound in enzyme free simulated gastric fluid measured upto 12 hrs; assay type: physicochemical; conditions: simulated gi fluid
[17] = target: Toll-like receptor 4/Ly96 (Mus musculus) (UniProt Q9QUK6+Q9JHF9); test: Inhibition of MD2/TLR4 protein-protein interaction in LPS-induced mouse J774.A1 cells at 20 uM incubated for 2 hrs by coimmunoprecipitation analysis; assay type: cell-based
[18] = system: J774.A1; test: Cytotoxicity against mouse J774.A1 cells at 3 to 12 uM by MTT assay; assay type: toxicity, cell-based; conditions: j774.a1, 12 µM, dose 3-12 µM
[19] = system: J774.A1; test: Anti-inflammatory activity in LPS-induced mouse J774.A1 cells assessed as inhibition of TNF-alpha production by ELISA; assay type: functional, cell-based
[20] = target: TLR4-MyD88 (Mus musculus) (UniProt Q9QUK6+P22366); test: Inhibition of MYD88/TLR4 protein-protein interaction in LPS-induced mouse J774.A1 cells at 20 uM incubated for 2 hrs by coimmunoprecipitation analysis; assay type: cell-based
Chain of TLR4-MyD88 (Mus musculus) (P22366 whole entry, looked up): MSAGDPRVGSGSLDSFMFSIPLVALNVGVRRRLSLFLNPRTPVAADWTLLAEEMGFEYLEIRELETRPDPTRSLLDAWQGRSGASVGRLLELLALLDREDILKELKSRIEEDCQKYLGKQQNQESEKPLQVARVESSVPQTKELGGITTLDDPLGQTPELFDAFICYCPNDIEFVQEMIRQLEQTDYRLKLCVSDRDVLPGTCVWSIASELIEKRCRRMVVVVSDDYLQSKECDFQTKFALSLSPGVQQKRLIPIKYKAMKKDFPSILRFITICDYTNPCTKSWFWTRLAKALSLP
Chain of TLR4-MyD88 (Mus musculus) (Q9QUK6 whole entry, looked up): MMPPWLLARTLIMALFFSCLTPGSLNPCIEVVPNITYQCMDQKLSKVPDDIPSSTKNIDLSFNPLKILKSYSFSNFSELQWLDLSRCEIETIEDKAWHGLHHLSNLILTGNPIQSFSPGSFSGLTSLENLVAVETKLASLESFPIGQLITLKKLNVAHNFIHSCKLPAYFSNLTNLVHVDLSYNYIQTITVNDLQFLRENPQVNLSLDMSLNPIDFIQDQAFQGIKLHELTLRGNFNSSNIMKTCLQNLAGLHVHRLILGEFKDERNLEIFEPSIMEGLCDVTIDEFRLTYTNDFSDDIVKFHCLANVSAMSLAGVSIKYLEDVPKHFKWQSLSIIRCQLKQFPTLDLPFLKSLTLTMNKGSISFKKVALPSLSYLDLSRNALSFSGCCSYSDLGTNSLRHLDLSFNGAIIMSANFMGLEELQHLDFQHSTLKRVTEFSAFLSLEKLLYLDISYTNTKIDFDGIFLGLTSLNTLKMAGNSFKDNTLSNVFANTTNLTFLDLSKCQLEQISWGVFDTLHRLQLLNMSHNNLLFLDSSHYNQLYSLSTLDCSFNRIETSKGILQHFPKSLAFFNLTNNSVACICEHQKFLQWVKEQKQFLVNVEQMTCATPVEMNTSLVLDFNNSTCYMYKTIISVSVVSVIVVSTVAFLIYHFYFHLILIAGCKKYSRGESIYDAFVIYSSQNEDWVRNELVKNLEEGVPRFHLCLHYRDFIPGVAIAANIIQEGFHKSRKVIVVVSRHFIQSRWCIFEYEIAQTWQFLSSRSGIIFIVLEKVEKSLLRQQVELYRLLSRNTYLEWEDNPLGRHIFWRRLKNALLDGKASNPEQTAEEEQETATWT

[21] = system: J774.A1; test: Inhibition of NF-kappaB signalling pathway in LPS-induced mouse J774.A1 cells assessed as downregulation of p65 phosphorylation by Western blotting analysis; assay type: cell-based
[22] = system: J774.A1; test: Anti-inflammatory activity in LPS-induced mouse J774.A1 cells assessed as inhibition of IL-6 production by ELISA; assay type: functional, cell-based
[23] = system: J774.A1; test: Inhibition of NF-kappaB signalling pathway in LPS-induced mouse J774.A1 cells assessed as upregulation of IkappaB-alpha expression by Western blotting analysis; assay type: cell-based
[24] = system: Mus musculus; test: Antiinflammatory activity against LPS induced acute lung injury C57BL/6 mouse model assessed as reduction in histopathological change in lung at 20 mg/kg,po administrated with compound for 30 mins followed by LPS treatment and measured after 6 hrs by H and E staining based analysis; assay type: functional, organism-based; conditions: time 6.5 hrs
[25] = system: Mus musculus; test: Antiinflammatory activity against LPS induced acute lung injury C57BL/6 mouse model assessed as reduction in of leukocytes in alveolar region at 20 mg/kg,po administrated with compound for 30 mins followed by LPS treatment and measured after 6 hrs by immunohistochemical staining based analysis; assay type: functional, organism-based
[26] = Drug concentration in Sprague-Dawley rat serum at 15 mg/kg,iv administration measured upto 24 hrs by LC-MS/MS analysis; assay type: ADME, organism-based; conditions: read-out: Ct
[27] = system: Peritoneal macrophage; test: Antiinflammatory activity in LPS-induced mouse Peritoneal macrophage cells assessed as inhibition of IFN-beta mRNA level at 1.25 to 5 uM by RT-PCR analysis; assay type: functional, cell-based; conditions: dose 1.25-5 µM
[28] = target: Myeloid differentiation primary response protein MyD88 (Homo sapiens, UniProt Q99836); test: Binding affinity to MYD88 (unknown origin) assessed as dissociation constant by biolayer interferometry
Chain of Myeloid differentiation primary response protein MyD88 (Q99836 whole entry): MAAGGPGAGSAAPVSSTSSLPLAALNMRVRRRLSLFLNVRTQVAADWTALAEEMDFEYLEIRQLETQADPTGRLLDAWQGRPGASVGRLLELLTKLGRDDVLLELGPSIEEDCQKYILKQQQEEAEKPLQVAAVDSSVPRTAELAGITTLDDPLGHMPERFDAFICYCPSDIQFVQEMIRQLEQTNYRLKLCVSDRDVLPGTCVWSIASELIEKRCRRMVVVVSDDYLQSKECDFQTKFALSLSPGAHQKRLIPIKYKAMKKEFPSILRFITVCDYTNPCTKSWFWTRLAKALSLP

[29] = system: J774.A1; test: Anti-inflammatory activity in LPS-induced mouse J774.A1 cells assessed as inhibition of TNF-alpha production at 10 uM by ELISA; assay type: functional, cell-based
[30] = system: J774.A1; test: Anti-inflammatory activity in LPS-induced mouse J774.A1 cells assessed as inhibition of IL-6 production at 10 uM by ELISA; assay type: functional, cell-based

| Structure (SMILES) | inhibition at 10 µM [1] [%] | Activity [2] | also measured |
| --- | --- | --- | --- |
| CC(c1ccccc1)C(O)CN1CCN(CC(O)COc2ccc(F)cc2)CC1 (stereo not given) | 4.5 | Non-toxic |  |
| COc1ccc(-c2csc(NC(=O)CCN3CCN(Cc4cccc([N+](=O)[O-])c4)CC3)n2)cc1OC |  |  | AUC(0-inf) [3]: 79.9 ng·h/mL; bioavailability [4]: 0.13%; Cmax [5]: 3.99 ng/mL; AUC(0-t) at 24 h [6]: 4.38 ng·h/mL; Tmax [7]: 4.8 min; Stability [8]: Unstable; Stability [9]: Stable; Tmax [10]: 15 min; Stability [11]: Stable; half-life [12]: 4.8 min; Cmax [13]: 297 ng/mL; Stability [14]: Stable; AUC(0-t) at 24 h [15]: 79.1 ng·h/mL; Stability [16]: Stable |
| OC(COc1ccccc1)CN1CCN(Cc2cc3ccccc3[nH]2)CC1 (stereo not given) | 74 | Non-toxic |  |
| OC(COc1ccc(F)cc1)CN1CCN(Cc2cc3ccccc3[nH]2)CC1 (stereo not given) | 76.3 | Non-toxic |  |
| Cc1ccccc1OCC(O)CN1CCN(CC(O)C(C)c2cccc(F)c2)CC1 (stereo not given) | 46.2 | Non-toxic |  |
| COc1ccc(OCC(O)CN2CCN(CC(O)C(C)c3cccc(F)c3)CC2)cc1 (stereo not given) | 37.8 | Non-toxic |  |
| O[C@@H](COc1ccc(Br)cc1)CN1CCN(Cc2cc3ccccc3[nH]2)CC1 |  |  | inhibition [17]: inactive; Activity [18]: Non-toxic; pIC50 [19]: 5.43; inhibition [20]: Active; inhibition [21]: Active; pIC50 [22]: 6.09; inhibition [23]: Active |
| COc1ccc(OCC(O)CN2CCN(Cc3cc4ccccc4[nH]3)CC2)cc1 (stereo not given) | 69 | Non-toxic |  |
| CC(c1ccccc1)C(O)CN1CCN(CC(O)COc2ccc(C(C)(C)C)cc2)CC1 (stereo not given) | 46.4 | Toxic |  |
| Cc1ccccc1OCC(O)CN1CCN(CC(O)C(C)c2ccccc2)CC1 (stereo not given) | 21.5 | Non-toxic |  |
| CC(c1cccc(F)c1)C(O)CN1CCN(CC(O)COCc2ccccc2)CC1 (stereo not given) | 30.4 | Non-toxic |  |
| CC(c1cccc(F)c1)C(O)CN1CCN(CC(O)COc2ccc(Cl)cc2)CC1 (stereo not given) | 55.5 | Non-toxic |  |
| C[C@@H]1C[C@H]2[C@@H]3CCC4=CC(=O)C=C[C@]4(C)[C@@]3(F)[C@@H](O)C[C@]2(C)[C@@]1(O)C(=O)CO |  |  | Activity [24]: Active; Activity [25]: Active |
| OC(COc1ccc(Cl)cc1)CN1CCN(Cc2cc3ccccc3[nH]2)CC1 (stereo not given) | 85.3 | Non-toxic |  |
| O=C(CCN1CCN(Cc2ccccc2)CC1)Nc1nc(-c2ccccc2)cs1 |  |  | concentration at 24 h [26]: 1190 ng/mL |
| Cc1ccccc1OCC(O)CN1CCN(Cc2cc3ccccc3[nH]2)CC1 (stereo not given) | 75.4 | Non-toxic |  |
| COc1ccccc1OCC(O)CN1CCN(CC(O)C(C)c2cccc(F)c2)CC1 (stereo not given) | 52.8 | Non-toxic |  |

| Structure (SMILES) | inhibition at 10 µM [1] [%] | Activity [2] | also measured |
| --- | --- | --- | --- |
| CC(c1cccc(F)c1)C(O)CN1CCN(CC(O)COc2ccc(C(C)(C)C)cc2)CC1 (stereo not given) | 44.3 | Non-toxic |  |
| CC(c1ccccc1)C(O)CN1CCN(CC(O)COc2ccc(Br)cc2)CC1 (stereo not given) | 47.9 | Non-toxic |  |
| CC(c1cccc(F)c1)C(O)CN1CCN(CC(O)COc2ccc(F)cc2)CC1 (stereo not given) | 42.1 | Non-toxic |  |
| COc1ccccc1OCC(O)CN1CCN(Cc2cc3ccccc3[nH]2)CC1 (stereo not given) | 62.6 | Non-toxic |  |
| CC(c1ccccc1)C(O)CN1CCN(CC(O)COc2ccccc2)CC1 (stereo not given) | 30.5 | Non-toxic |  |
| CC(c1cccc(F)c1)C(O)CN1CCN(CC(O)COc2ccc(Br)cc2)CC1 (stereo not given) | 43.1 | Non-toxic |  |
| COc1ccc(C(=O)/C=C/c2cccc(OC)c2OC)cc1 |  |  | Activity [27]: Active |
| OC(COc1ccc(Br)cc1)CN1CCN(Cc2cc3ccccc3[nH]2)CC1 (stereo not given) | 84.2 | Non-toxic | pKd [28]: 4.07 |
| Cc1c(CN2CCN(C3CCNC3)CC2)[nH]c2ccc(F)cc12 (stereo not given) | 71.7 | Non-toxic | pKd [28]: 3.56; inhibition [29]: Active; inhibition [30]: Active |
| CC(c1cccc(F)c1)C(O)CN1CCN(CC(O)COc2ccccc2)CC1 (stereo not given) | 31.8 | Non-toxic |  |
| COc1ccccc1OCC(O)CN1CCN(CC(O)C(C)c2ccccc2)CC1 (stereo not given) | 27.8 | Non-toxic |  |
| CC(C)(C)c1ccc(OCC(O)CN2CCN(Cc3cc4ccccc4[nH]3)CC2)cc1 (stereo not given) | 5.83 | Toxic |  |
| COc1ccc(OCC(O)CN2CCN(CC(O)C(C)c3ccccc3)CC2)cc1 (stereo not given) | 46.8 | Non-toxic |  |
| CC(c1ccccc1)C(O)CN1CCN(CC(O)COCc2ccccc2)CC1 (stereo not given) | 20 | Non-toxic |  |
| CC(c1ccccc1)C(O)CN1CCN(CC(O)COc2ccc(Cl)cc2)CC1 (stereo not given) | 14 | Non-toxic |  |
| OC(COCc1ccccc1)CN1CCN(Cc2cc3ccccc3[nH]2)CC1 (stereo not given) | 72.7 | Non-toxic |  |
